Results from US9018206B2, “Carboxamide compounds and their use as calpain inhibitors” (AbbVie Deutschland GmbH & Co. KG, priority 2009, dated 2015).

Experiments:
[1] = biological target: T1, recombinant human cathepsin S (Homo sapiens, UniProt P25774); assay: Cathepsin S enzyme inhibition in vitro (kinetic fluorescence assay); type: biochemical; settings: Ki(cathepsin S)/Ki(calpain) ratio
T1 construct: purchased Calbiochem 219343; host or cells: E. coli
How it was run: (§1)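 Kinetic AMC fluorescence (ex 390/em 460 nm), room temperature. Calpain-I 20 nM, 100 μM Suc-Leu-Tyr-AMC, imidazole/CaCl2 pH 7.3; cathepsins B 0.25 nM/100 μM Z-Phe-Arg-AMC, K 3 nM/10 μM Z-Gly-Pro-Arg-AMC, S 0.5 nM/20 μM Z-Val-Val-Arg-AMC, each MES/EDTA/cysteine pH 6.0. Ki from IC50 via Cheng-Prusoff, averaging 2–4 curves.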

[2] = Assay for determining cytosolic clearance, human liver cytosol; type: in vitro ADME; settings: 0.5 μM compound, 1 mg/ml human liver cytosol, 37° C., pH 7.5
Procedure: (§2) For comparison purposes data measured with human liver cytosol were contrasted with those obtained with cynomolgus monkey liver cytosol.
(§3) 0.5 μM of a compound to be tested was incubated with 1 mg/ml of human liver cytosol as well as monkey liver cytosol at 37° C. in 0.5 M of phosphate buffer at pH 7.5 while shaking (commercial sources: female cynomolgus liver cytosol from Tebu bio, human liver cytosol from BDgentest).
(§4) In each case aliquots of 65 μl were taken after 0, 5, 10 and 15 min and transferred into wells of a wellplate which were immediately filled with 130 μl of ethanol to stop the reaction. The samples were kept frozen until analysis on a LC/MS/MS system (Applied Biosystems SCIEX 4000).
(§5) Read out parameters were the loss of parent compounds, from which the half life periods (T1/2) were calculated from.
(§6) To assess the stability of the compounds tested the clearance ranges were adjusted to the hepatic plasma flow of the different species according to the following scheme:
(§7) stable=from 0 to about ⅓ of the hepatic plasma flow;
(§8) moderately stable=from about ⅓ to about ⅔ of the hepatic plasma flow;
(§9) instable=more than ⅔ of the hepatic plasma flow.
(§10) Based on this adjustment the following qualifiers were assigned to evaluate the cytosolic stabilities of the compounds tested: […]

[3] = biological target: T2, cathepsin L isolated from human liver (Homo sapiens, UniProt P07711); assay: Cathepsin L enzyme inhibition in vitro (kinetic fluorescence assay); type: biochemical; settings: Ki(cathepsin L)/Ki(calpain) ratio
T2 construct: cathepsin L—isolated from human liver; purchased Calbiochem 219402; host or cells: human liver (tissue-derived)
How it was run: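 Inhibition of cathepsin L isolated from human liver was measured by kinetic fluorescence (excitation 390 nm, emission 460 nm) using 1 nM enzyme and 2 μM Z-Phe-Arg-AMC substrate (Km 2 μM) in 50 mM MES, 2 mM EDTA, 0.05% Brij 35, 2.5 mM L-cysteine, pH 6.0, at room temperature. Apparent Ki values came from IC50 values via the Cheng-Prussoff relation, averaged over 2 to 4 dose-effect plots.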

[4] = biological target: T3, cathepsin B isolated from human liver (Homo sapiens, UniProt P07858); assay: Cathepsin B enzyme inhibition in vitro (kinetic fluorescence assay); type: biochemical; settings: Ki(cathepsin B)/Ki(calpain) ratio
T3 construct: cathepsin B—isolated from human liver; purchased Calbiochem 219362; host or cells: human liver (tissue-derived)
How it was run: as §1

[5] = biological target: T4, cathepsin K activated from recombinant human procathepsin K (Homo sapiens, UniProt P43235); assay: Cathepsin K enzyme inhibition in vitro (kinetic fluorescence assay); type: biochemical; settings: Ki(cathepsin K)/Ki(calpain) ratio
T4 construct: purchased Calbiochem 342001; host or cells: E. coli
T4 sequence (P43235 115-329): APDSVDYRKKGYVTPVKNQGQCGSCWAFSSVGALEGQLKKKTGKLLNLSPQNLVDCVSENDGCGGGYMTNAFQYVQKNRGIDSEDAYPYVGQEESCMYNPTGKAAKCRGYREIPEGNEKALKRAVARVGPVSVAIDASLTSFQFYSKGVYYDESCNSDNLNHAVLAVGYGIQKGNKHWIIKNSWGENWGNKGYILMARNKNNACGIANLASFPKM
How it was run: as §1

[6] = Assay for determining cytosolic clearance, cynomolgus monkey liver cytosol; type: in vitro ADME; settings: 0.5 μM compound, 1 mg/ml cynomolgus monkey liver cytosol, 37° C., pH 7.5
Procedure: as §2, §3, §4, §5, §6, §7, §8, §9, §10

[7] = biological target: T5, calpain-I isolated from human erythrocytes (Homo sapiens, UniProt P07384); assay: Calpain I enzyme inhibition in vitro (kinetic fluorescence assay); type: biochemical; settings: apparent Ki from IC50 (Cheng-Prussoff); 20 nM calpain-I, 100 μM Suc-Leu-Tyr-AMC, pH 7.3, room temperature
T5 construct: calpain-I—isolated from human erythrocytes; purchased Calbiochem 208713; host or cells: human erythrocytes (tissue-derived)
T5 sequence (P07384 1-714): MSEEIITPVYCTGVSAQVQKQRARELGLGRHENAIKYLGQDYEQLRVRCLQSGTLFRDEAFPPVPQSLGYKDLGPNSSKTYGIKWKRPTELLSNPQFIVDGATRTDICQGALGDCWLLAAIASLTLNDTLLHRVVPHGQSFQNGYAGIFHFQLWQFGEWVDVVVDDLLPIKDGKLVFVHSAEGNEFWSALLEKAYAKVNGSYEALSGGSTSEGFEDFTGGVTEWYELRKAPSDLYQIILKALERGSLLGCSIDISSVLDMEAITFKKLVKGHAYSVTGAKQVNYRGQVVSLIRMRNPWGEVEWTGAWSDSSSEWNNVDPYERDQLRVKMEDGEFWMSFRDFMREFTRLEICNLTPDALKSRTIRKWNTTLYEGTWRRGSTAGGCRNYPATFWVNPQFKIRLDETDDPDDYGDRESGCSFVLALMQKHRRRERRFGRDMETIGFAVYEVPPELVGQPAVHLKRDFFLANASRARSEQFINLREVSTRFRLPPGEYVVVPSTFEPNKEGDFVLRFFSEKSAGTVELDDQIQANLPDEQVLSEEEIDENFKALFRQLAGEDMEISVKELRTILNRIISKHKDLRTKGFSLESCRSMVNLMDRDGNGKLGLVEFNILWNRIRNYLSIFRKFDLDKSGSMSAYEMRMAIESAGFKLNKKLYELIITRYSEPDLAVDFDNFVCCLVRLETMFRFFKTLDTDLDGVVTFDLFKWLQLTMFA
T5 sequence (P04632 1-268 partner): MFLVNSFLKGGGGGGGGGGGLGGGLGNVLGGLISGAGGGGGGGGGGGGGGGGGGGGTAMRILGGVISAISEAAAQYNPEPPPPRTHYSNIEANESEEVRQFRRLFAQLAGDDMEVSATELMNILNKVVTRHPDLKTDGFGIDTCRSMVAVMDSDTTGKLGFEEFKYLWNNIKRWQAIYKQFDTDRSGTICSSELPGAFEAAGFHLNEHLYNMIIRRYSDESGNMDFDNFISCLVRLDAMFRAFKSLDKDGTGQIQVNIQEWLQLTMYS
How it was run: as §1

T2 sequence (P07711 114-333): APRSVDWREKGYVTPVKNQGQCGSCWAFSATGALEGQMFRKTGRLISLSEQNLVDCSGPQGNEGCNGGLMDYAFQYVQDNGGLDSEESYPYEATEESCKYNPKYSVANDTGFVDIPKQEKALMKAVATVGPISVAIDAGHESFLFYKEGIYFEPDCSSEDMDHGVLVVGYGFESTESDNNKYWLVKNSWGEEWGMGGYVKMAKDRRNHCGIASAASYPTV
T1 sequence (P25774 115-331): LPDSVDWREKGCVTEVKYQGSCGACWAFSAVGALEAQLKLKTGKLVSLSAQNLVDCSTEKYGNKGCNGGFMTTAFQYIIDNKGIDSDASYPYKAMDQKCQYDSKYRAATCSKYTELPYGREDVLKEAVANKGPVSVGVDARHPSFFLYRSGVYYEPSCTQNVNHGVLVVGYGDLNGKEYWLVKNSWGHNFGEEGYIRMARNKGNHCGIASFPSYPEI

Structure (SMILES): COc1cccc(C(F)(F)F)c1CN1C(=O)CC[C@@H]1C(=O)NC(Cc1ccccc1)C(=O)C(=O)NCc1ccccn1 (mixture of isomers) [Example 43, (2R)—N-(3,4-Dioxo-1-phenyl-4-(pyridin-2-ylmethylamino)butan-2-yl)-1-(2-methoxy-6-(trifluoromethyl)benzyl)-5-oxopyrrolidine-2-carboxamide]
- Sel cat. S [1]: ++ (30<Ki(cathepsin B)/Ki(calpain)≦100)
- human cytCL [2]: ++ (0-14 μl/min/mg)
- Sel cat. L [3]: +++ (Ki(cathepsin L)/Ki(calpain) ratio of >30)
- Sel cat. B [4]: +++ (Ki(cathepsin B)/Ki(calpain) ratio of >30)
- Sel cat. K [5]: +++ (Ki(cathepsin K)/Ki(calpain) ratio of >30)
- cyno cytCL [6]: ++ (0-18 μl/min/mg)
- Ki [7]: 100 to 600 nM

Structure (SMILES): CCNC(=O)C(=O)C(Cc1ccccc1)NC(=O)[C@H]1CCC(=O)N1Cc1ccccc1C(F)(F)F (mixture of isomers) [Example 37, (2R)—N-(4-(Ethylamino)-3,4-dioxo-1-phenylbutan-2-yl)-5-oxo-1-(2-(trifluoromethyl)-benzyl)pyrrolidine-2-carboxamide]
- Sel cat. S [1]: + (10<Ki(cathepsin S)/Ki(calpain)≦30)
- human cytCL [2]: ++ (0-14 μl/min/mg)
- Sel cat. L [3]: +++ (Ki(cathepsin L)/Ki(calpain) ratio of >30)
- Sel cat. B [4]: ++ (10<Ki(cathepsin B)/Ki(calpain)≦30)
- Sel cat. K [5]: ++ (10<Ki(cathepsin B)/Ki(calpain)≦30)
- cyno cytCL [6]: ++ (0-18 μl/min/mg)
- Ki [7]: 100 to 600 nM

Structure (SMILES): CC(C)CNC(=O)C(=O)C(Cc1ccccc1)NC(=O)[C@H]1CCC(=O)N1Cc1ccccc1 (mixture of isomers) [Example 28, (2R)-1-Benzyl-N-(4-(isobutylamino)-3,4-dioxo-1-phenylbutan-2-yl)-5-oxopyrrolidine-2-carboxamide]
- Sel cat. S [1]: ++ (30<Ki(cathepsin B)/Ki(calpain)≦100)
- human cytCL [2]: ++ (0-14 μl/min/mg)
- Sel cat. L [3]: +++ (Ki(cathepsin L)/Ki(calpain) ratio of >30)
- Sel cat. B [4]: +++ (Ki(cathepsin B)/Ki(calpain) ratio of >30)
- Sel cat. K [5]: +++ (Ki(cathepsin K)/Ki(calpain) ratio of >30)
- cyno cytCL [6]: ++ (0-18 μl/min/mg)
- Ki [7]: 100 to 600 nM

Structure (SMILES): O=C(NC1CC1)C(=O)C(Cc1ccccc1)NC(=O)[C@H]1CCC(=O)N1Cc1ccccc1C(F)(F)F (mixture of isomers) [Example 36, (2R)—N-(4-(Cyclopropylamino)-3,4-dioxo-1-phenylbutan-2-yl)-5-oxo-1-(2-(trifluoromethyl)benzyl)pyrrolidine-2-carboxamide]
- Sel cat. S [1]: +++ (Ki(cathepsin S)/Ki(calpain) ratio of >100)
- human cytCL [2]: ++ (0-14 μl/min/mg)
- Sel cat. L [3]: +++ (Ki(cathepsin L)/Ki(calpain) ratio of >30)
- Sel cat. B [4]: ++ (10<Ki(cathepsin B)/Ki(calpain)≦30)
- Sel cat. K [5]: +++ (Ki(cathepsin K)/Ki(calpain) ratio of >30)
- cyno cytCL [6]: ++ (0-18 μl/min/mg)
- Ki [7]: 50 to 100 nM

Structure (SMILES): COc1cccc(C(F)(F)F)c1CN1C(=O)CC[C@@H]1C(=O)NC(Cc1ccccc1)C(=O)C(N)=O (stereo partly drawn) [Example 50, (2R)—N-(4-Amino-3,4-dioxo-1-phenylbutan-2-yl)-5-oxo-1-[2-methoxy-6-(trifluoromethyl)benzyl]pyrrolidine-2-carboxamide]
- Sel cat. S [1]: +++ (Ki(cathepsin S)/Ki(calpain) ratio of >100)
- human cytCL [2]: + (14-70 μl/min/mg)
- Sel cat. L [3]: +++ (Ki(cathepsin L)/Ki(calpain) ratio of >30)
- Sel cat. B [4]: +++ (Ki(cathepsin B)/Ki(calpain) ratio of >30)
- Sel cat. K [5]: +++ (Ki(cathepsin K)/Ki(calpain) ratio of >30)
- cyno cytCL [6]: + (18-90 μl/min/mg)
- Ki [7]: < 50 nM

Structure (SMILES): CNC(=O)C(=O)C(Cc1ccccc1)NC(=O)[C@H]1CCC(=O)N1Cc1ccccc1 (mixture of isomers) [Example 25, (2R)-1-Benzyl-N-(4-(methylamino)-3,4-dioxo-1-phenylbutan-2-yl)-5-oxopyrrolidine-2-carboxamide]
- Sel cat. S [1]: ++ (30<Ki(cathepsin B)/Ki(calpain)≦100)
- human cytCL [2]: ++ (0-14 μl/min/mg)
- Sel cat. L [3]: +++ (Ki(cathepsin L)/Ki(calpain) ratio of >30)
- Sel cat. B [4]: +++ (Ki(cathepsin B)/Ki(calpain) ratio of >30)
- Sel cat. K [5]: +++ (Ki(cathepsin K)/Ki(calpain) ratio of >30)
- cyno cytCL [6]: ++ (0-18 μl/min/mg)
- Ki [7]: 100 to 600 nM

Structure (SMILES): CCNC(=O)C(=O)C(Cc1ccccc1)NC(=O)[C@H]1CCC(=O)N1Cc1ccccc1 (stereo partly drawn) [Example 21, (2R)-1-Benzyl-N-[4-(ethylamino)-3,4-dioxo-1-phenylbutan-2-yl]-5-oxopyrrolidine-2-carboxamide]
- Sel cat. S [1]: ++ (30<Ki(cathepsin B)/Ki(calpain)≦100)
- human cytCL [2]: ++ (0-14 μl/min/mg)
- Sel cat. L [3]: +++ (Ki(cathepsin L)/Ki(calpain) ratio of >30)
- Sel cat. B [4]: +++ (Ki(cathepsin B)/Ki(calpain) ratio of >30)
- Sel cat. K [5]: +++ (Ki(cathepsin K)/Ki(calpain) ratio of >30)
- cyno cytCL [6]: ++ (0-18 μl/min/mg)
- Ki [7]: 100 to 600 nM
